Assay results: patent US7300946B2, “N-(substituted arylmethyl)-4-(disubstituted methyl) piperidines and pyridines” (Bayer CropScience AG, priority 2002, dated 2007)

System: tobacco budworm (Heliothis virescens [Fabricius])
Experiment: surface-treated diet test against the tobacco budworm
Format: in vivo
Details: tobacco budworm second instar larvae, 0.25 millimoles of candidate insecticide on the surface of the diet, five-day exposure; for Percent Mortality: compared to total number of insects infested; for Percent Growth Inhibition: inhibition of insect weight relative to untreated controls
Outline: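 Wheat germ artificial diet surface-treated with 40 µL of 50 mM DMSO stock diluted 1:7 in 1:1 water/acetone (0.25 millimolar on diet), or sub-multiples for rate tests. One second-instar larva per well, 25° C, 60% RH, 5 days; percent weight inhibition vs DMSO controls and percent mortality.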

## FC(F)(F)c1ccc(C(=C2CCN(Cc3ccc(Oc4ncccn4)cc3)CC2)c2cccc(C(F)(F)F)c2)cc1 [Compound 822]
  Percent Mortality: 100%
  Percent Growth Inhibition: 100%

## FC(F)(F)c1ccc(C(=C2CCN(Cc3ccc(OC4=NCCCN4)cc3)CC2)c2ccc(C(F)(F)F)cc2)cc1 [Compound 823]
  Percent Mortality: 67%
  Percent Growth Inhibition: 100%

## FC(F)(F)c1ccc(C(=C2CCN(Cc3ccc(Oc4ncccn4)cc3)CC2)c2ccc(C(F)(F)F)cc2)cc1 [Compound 824]
  Percent Mortality: 100%
  Percent Growth Inhibition: 100%

## FC(F)(F)c1ccc(C(=C2CCN(Cc3ccc(Oc4cnccn4)cc3)CC2)c2ccc(C(F)(F)F)cc2)cc1 [Compound 825]
  Percent Mortality: 83%
  Percent Growth Inhibition: 100%

## FC(F)(F)c1ccc(C(=C2CCN(Cc3ccc(Oc4ccc(Cl)nn4)cc3)CC2)c2ccc(C(F)(F)F)cc2)cc1 [Compound 826]
  Percent Mortality: 100%
  Percent Growth Inhibition: 100%

## CNC(=O)Oc1ccc(C[N+]2([O-])CCC(=C(c3ccc(Cl)cc3)c3ccc(Cl)cc3)CC2)cc1 (stereo not drawn) [Compound 827]
  Percent Mortality: 100%
  Percent Growth Inhibition: 100%

## CNC(=O)Oc1ccc(C[N+]2([O-])CCC(=C(c3ccc(C(F)(F)F)cc3)c3ccc(C(F)(F)F)cc3)CC2)cc1 (stereo not drawn) [Compound 828]
  Percent Mortality: 100%
  Percent Growth Inhibition: 100%

## CNC(=O)Oc1ccc(C[N+]2([O-])CCC(=C(c3ccc(OC(F)(F)F)cc3)c3ccc(OC(F)(F)F)cc3)CC2)cc1 (stereo not drawn) [Compound 829]
  Percent Mortality: 100%
  Percent Growth Inhibition: 100%

## CC(C)NC(=O)Oc1ccc(C[N+]2([O-])CCC(=C(c3ccc(C(F)(F)F)cc3)c3ccc(C(F)(F)F)cc3)CC2)cc1 (stereo not drawn) [Compound 830]
  Percent Mortality: 100%
  Percent Growth Inhibition: 100%

## CC(C)OC(=O)Nc1ccc(C[N+]2([O-])CCC(=C(c3ccc(Cl)cc3)c3ccc(Cl)cc3)CC2)cc1 (stereo not drawn) [Compound 831]
  Percent Mortality: 100%
  Percent Growth Inhibition: 100%

## CC(C)OC(=O)Nc1ccc(C[N+]2([O-])CCC(=C(c3ccc(F)cc3)c3ccc(F)cc3)CC2)cc1 (stereo not drawn) [Compound 832]
  Percent Mortality: 83%
  Percent Growth Inhibition: 100%

## CC(C)OC(=O)Nc1ccc(C[N+]2([O-])CCC(=C(c3ccc(Cl)c(Cl)c3)c3ccc(Cl)c(Cl)c3)CC2)cc1 (stereo not drawn) [Compound 833]
  Percent Mortality: 100%
  Percent Growth Inhibition: 100%

## CC(C)OC(=O)Nc1ccc(C[N+]2([O-])CCC(=C(c3ccc(Cl)c(F)c3)c3ccc(Cl)c(F)c3)CC2)cc1 (stereo not drawn) [Compound 834]
  Percent Mortality: 100%
  Percent Growth Inhibition: 100%

## COc1ccc(C(=C2CC[N+]([O-])(Cc3ccc(NC(=O)OC(C)C)cc3)CC2)c2ccc(OC)cc2)cc1 (stereo not drawn) [Compound 835]
  Percent Mortality: 0%
  Percent Growth Inhibition: 80%

## C=CCOC(=O)Nc1ccc(C[N+]2([O-])CCC(=C(c3ccc(C(F)(F)F)cc3)c3ccc(C(F)(F)F)cc3)CC2)cc1 (stereo not drawn) [Compound 836]
  Percent Mortality: 100%
  Percent Growth Inhibition: 100%

## CC=CCOC(=O)Nc1ccc(C[N+]2([O-])CCC(=C(c3ccc(C(F)(F)F)cc3)c3ccc(C(F)(F)F)cc3)CC2)cc1 (stereo not drawn) [Compound 837]
  Percent Mortality: 100%
  Percent Growth Inhibition: 100%

## C#CCOC(=O)Nc1ccc(C[N+]2([O-])CCC(=C(c3ccc(C(F)(F)F)cc3)c3ccc(C(F)(F)F)cc3)CC2)cc1 (stereo not drawn) [Compound 838]
  Percent Mortality: 100%
  Percent Growth Inhibition: 100%

## [O-][N+]1(Cc2ccc(Oc3ccccc3F)cc2)CCC(=C(c2ccc(C(F)(F)F)cc2)c2ccc(C(F)(F)F)cc2)CC1 (stereo not drawn) [Compound 839]
  Percent Mortality: 100%
  Percent Growth Inhibition: 100%

## [O-][N+]1(Cc2ccc(-c3ccccn3)cc2)CCC(=C(c2ccc(C(F)(F)F)cc2)c2ccc(C(F)(F)F)cc2)CC1 (stereo not drawn) [Compound 840]
  Percent Mortality: 100%
  Percent Growth Inhibition: 100%

## [O-][N+]1(Cc2ccc(Oc3ccccn3)cc2)CCC(=C(c2ccc(Cl)cc2)c2ccc(Cl)cc2)CC1 (stereo not drawn) [Compound 841]
  Percent Mortality: 100%
  Percent Growth Inhibition: 100%

## [O-][N+]1(Cc2ccc(Oc3ccccn3)cc2)CCC(=C(c2ccc(F)cc2)c2ccc(F)cc2)CC1 (stereo not drawn) [Compound 842]
  Percent Mortality: 100%
  Percent Growth Inhibition: 100%

## [O-][N+]1(Cc2ccc(Nc3ccccn3)cc2)CCC(=C(c2ccc(C(F)(F)F)cc2)c2ccc(C(F)(F)F)cc2)CC1 (stereo not drawn) [Compound 843]
  Percent Mortality: 100%
  Percent Growth Inhibition: 100%

## [O-][N+]1(Cc2ccc(Oc3ncccn3)cc2)CCC(=C(c2ccc(Cl)cc2)c2ccc(Cl)cc2)CC1 (stereo not drawn) [Compound 844]
  Percent Mortality: 100%
  Percent Growth Inhibition: 100%

## [O-][N+]1(Cc2ccc(Oc3ncccn3)cc2)CCC(=C(c2ccc(C(F)(F)F)cc2)c2ccccc2Cl)CC1 (stereo not drawn) [Compound 845]
  Percent Mortality: 83%
  Percent Growth Inhibition: 100%

## [O-][N+]1(Cc2ccc(Oc3ncccn3)cc2)CCC(=C(c2ccc(C(F)(F)F)cc2)c2cccc(Cl)c2)CC1 (stereo not drawn) [Compound 846]
  Percent Mortality: 100%
  Percent Growth Inhibition: 100%

## [O-][N+]1(Cc2ccc(Oc3ncccn3)cc2)CCC(=C(c2ccc(Cl)cc2)c2ccc(C(F)(F)F)cc2)CC1 (stereo not drawn) [Compound 847]
  Percent Mortality: 100%
  Percent Growth Inhibition: 100%

## [O-][N+]1(Cc2ccc(Oc3ncccn3)cc2)CCC(=C(c2ccc(C(F)(F)F)cc2)c2cccc(F)c2)CC1 (stereo not drawn) [Compound 848]
  Percent Mortality: 83%
  Percent Growth Inhibition: 100%

## [O-][N+]1(Cc2ccc(Oc3ncccn3)cc2)CCC(=C(c2ccc(Cl)c(Cl)c2)c2ccc(Cl)c(Cl)c2)CC1 (stereo not drawn) [Compound 849]
  Percent Mortality: 100%
  Percent Growth Inhibition: 100%

## [O-][N+]1(Cc2ccc(Oc3ncccn3)cc2)CCC(=C(c2ccc(C(F)(F)F)cc2)c2ccc(Cl)c(Cl)c2)CC1 (stereo not drawn) [Compound 850]
  Percent Mortality: 100%
  Percent Growth Inhibition: 100%

## [O-][N+]1(Cc2ccc(Oc3ncccn3)cc2)CCC(=C(c2ccc(C(F)(F)F)cc2)c2cc(Cl)cc(Cl)c2)CC1 (stereo not drawn) [Compound 851]
  Percent Mortality: 50%
  Percent Growth Inhibition: 100%

## [O-][N+]1(Cc2ccc(Oc3ncccn3)cc2)CCC(=C(c2ccc(C(F)(F)F)cc2)c2ccc(Cl)c(F)c2)CC1 (stereo not drawn) [Compound 852]
  Percent Mortality: 100%
  Percent Growth Inhibition: 100%

## [O-][N+]1(Cc2ccc(Oc3ncccn3)cc2)CCC(=C(c2ccc(C(F)(F)F)cc2)c2cccc(C(F)(F)F)c2)CC1 (stereo not drawn) [Compound 853]
  Percent Mortality: 100%
  Percent Growth Inhibition: 100%

## [O-][N+]1(Cc2ccc(Oc3ncccn3)cc2)CCC(=C(c2ccc(C(F)(F)F)cc2)c2ccc(C(F)(F)F)cc2)CC1 (stereo not drawn) [Compound 854]
  Percent Mortality: 100%
  Percent Growth Inhibition: 100%

## [O-][N+]1(Cc2ccc(Oc3ccc(Cl)nn3)cc2)CCC(=C(c2ccc(C(F)(F)F)cc2)c2ccc(C(F)(F)F)cc2)CC1 (stereo not drawn) [Compound 855]
  Percent Mortality: 100%
  Percent Growth Inhibition: 100%

## [O-][N+]1(Cc2ccc(Oc3ncccn3)cc2)CCC(=C(c2ccc(C(F)(F)F)cc2)c2cc(Cl)cc(Cl)c2)CC1 (stereo not drawn) [Compound 856]
  Percent Mortality: 50%
  Percent Growth Inhibition: 100%

## [O-][N+]1(Cc2ccc(Oc3ncccn3)cc2)CCC(=C(c2ccc(C(F)(F)F)cc2)c2ccccc2Cl)CC1 (stereo not drawn) [Compound 857]
  Percent Mortality: 83%
  Percent Growth Inhibition: 100%

## FC(F)(F)c1ccc(C(=C2CCN(Cc3ccc(Oc4ccccc4)nc3)CC2)c2ccc(C(F)(F)F)cc2)cc1 [Compound 858]
  Percent Mortality: 17%
  Percent Growth Inhibition: 99%

## FC(F)(F)c1ccc(C(=C2CCN(Cc3ccc(Nc4ncccn4)nc3)CC2)c2ccc(C(F)(F)F)cc2)cc1 [Compound 859]
  Percent Mortality: 0%
  Percent Growth Inhibition: 46%

## CCOS(=O)(=O)[O-].CCO[N+]1(Cc2ccc(Oc3ccccn3)cc2)CCC(C(OC(=O)Nc2ccc(Cl)cc2)c2ccc(C(F)(F)F)cc2)CC1 (stereo not drawn) [Compound 860, N-(4-chlorophenyl)({1-ethoxy-1-[(4-(2-pyridyloxy)phenyl)methyl](4-piperidyl)}[4-(trifluoromethyl)phenyl]methoxy)carboxamide, ethyl sulfate salt]
  Percent Mortality: 100%
  Percent Growth Inhibition: 100%
